# In US4916068A, “Bioconversion production of ascorbic acid with L-galactono-1,4-oxidase” (Kraft, Inc., priority 1984, dated 1990):
# B1: L-galactono-1,4-lactone oxidase (Saccharomyces cerevisiae S288C) (protein)
# chain: MSTIPFRKNYVFKNWAGIYSAKPERYFQPSSIDEVVELVKSARLAEKSLVTVGSGHSPSNMCVTDEWLVNLDRLDKVQKFVEYPELHYADVTVDAGMRLYQLNEFLGAKGYSIQNLGSISEQSVAGIISTGSHGSSPYHGLISSQYVNLTIVNGKGELKFLDAENDPEVFKAALLSVGKIGIIVSATIRVVPGFNIKSTQEVITFENLLKQWDTLWTSSEFIRVWWYPYTRKCVLWRGNKTTDAQNGPAKSWWGTKLGRFFYETLLWISTKIYAPLTPFVEKFVFNRQYGKLEKSSTGDVNVTDSISGFNMDCLFSQFVDEWGCPMDNGLEVLRSLDHSIAQAAINKEFYVHVPMEVRCSNTTLPSEPLDTSKRTNTSPGPVYGNVCRPFLDNTPSHCRFAPLENVTNSQLTLYINATIYRPFGCNTPIHKWFTLFENTMMVAGGKPHWAKNFLGSTTLAAGPVKKDTDYDDFEMRGMALKVEEWYGEDLKKFRKIRKEQDPDNVFLANKQWAIINGIIDPSELSD
# notes: The pellet (mitochondria) was saved and resuspended in 250 ml; endogenous in cells; host or cells: mitochondria of Red Star baker's yeast (Saccharomyces cerevisiae)
# Legend:
# preferred yeast strains = assay: utilization of galactose derivatives for L-ascorbic acid formation; format: cell-based; settings: compared with L-galactono-gamma-lactone
# Description: The D-galactose 18 is converted by catalytic oxidation to provide D-galacturonic acid 22. Processes to carry out this oxidative step for D-sugar acids are well known in the art and have been described in U.S. Pat. No. 2,265,121 by T. Reichstein. A variety of catalytic agents, e.g., platinum or palladium catalysts may be employed to convert blocked D-galactose (acetone) to the D-galacturonic acid product. The unblocked D-galacturonic acid may then be reduced by an appropriate reduction step such as reduction with gaseous hydrogen in the presence of a suitable hydrogenation catalyst such as Raney nickel, or palladium, to produce L-galactonic acid 24. Processes to carry out this chemical reduction are well known in the art such as described by H. Isbell, J. Res. Nat. Bur. Stds., 33, 45-60 (1944). Removal of water by distillation and condensation of the desalted L-sugar acid induces the formation of L-galactono-gamma-lactone 26 which is utilized in the microbiological conversion process of the present invention to form L-ascorbic acid. […] Keto-derivatives such as 5-Keto-L-Galactonic acid, are not utilized by the preferred yeast strains particularly described herein. The L-galactono-gamma-lactone 26, ethanol 16, and suitable organic and inorganic nutrients are combined to provide a fermentation medium 28 for a selected L-ascorbic acid overproducer.
# Candida norvegensis = assay: Assimilation tests (identification of the yeast); format: cell-based; settings: C. norvegensis MF-56, MF-78 and parent CBS 2145
# Description: The morphological, cultural and physiological characteristics of the mutant strain C. norvegensis Kraft, Inc. MF-56 ATCC 20686, the mutant strain C. norvegensis Kraft, Inc. MF-78 ATCC 20732, and the parent strain C. norvegensis CBS 2145 are consistent with the yeast description provided in The Yeasts, a taxononomic study (J. Lodder (Ed.) 1970, North Holland Publishing Co., Amsterdam) and A New Key to the Yeasts (J. A. Barnett & R. J. Parkhurst (Ed) 1974, North Holland Publishing Co., Amsterdam).
# [1] = test system: Candida norvegensis CBS 1911; assay: aerobic bioconversion run with ethanol carbon source; format: cell-based; settings: 48 hours; for Other redox Compounds / Total Ascorbate / L-Ascorbate: 0.5% substrate; for L-Ascorbate: HPLC with electrochemical detection; for Optical Density: SMl + 1.5% ethanol + 0.5% substrate, 30° C.
# Description: (§1) Two yeast strains, Candida norvegensis CBS 1911 and Candida utilus NRRL Y-900 are utilized with an ethanol carbon source in separate bioconversion runs with each of two different substrates, L-galactono-1,4-lactone or D-galacturonic acid-methyl ester. The bioconversion runs are carried out under aerobic conditions in a 500 milliliter low actinic flask containing 50 ml of the biconversion medium. The bioconversions were carried out at a temperature of 30° C. for 48 hours with agitation provided by a skaker operating at 200 rpm. The medium for the C. norvegensis runs was the SMl medium previously described plus 1.5% ethanol plus 0.5% substrate. The medium for the C. utilus runs were SMl plus 1.5% ethanol plus 0.2% substrate.
# [2] = test system: Candida utilus NRRL Y-900; assay: as above; format: cell-based; settings: 48 hours; for Other redox Compounds / Total Ascorbate / L-Ascorbate: 0.2% substrate; for L-Ascorbate: HPLC with electrochemical detection; for Optical Density: SMl + 1.5% ethanol + 0.2% substrate, 30° C.
# Description: as §1
# [3] = test system: L-Galactono-1,4-Lactone Oxidase; assay: L-galactono-1,4-lactone oxidase activity, comparison of yeast strains; format: biochemical; settings: C. norvegensis (CBS 1911)
# Description: An assay mixture is provided which contains 2mM L-galactono-1,4-lactone and 50 mM Na-Citrate pH 6.8 in a total volume of 3 ml. The mixture is incubated at 37° C. in a shaker bath for up to 30 minutes. The reaction is stopped by adding 0.3 ml of 50% TCA. The precipitated protein is removed by centrifugation and the supernatant is assayed for L-ascorbate by high performance liquid chromatography analysis with electrochemical detection and by 2,6,dichloroindophenol titration.
# A series of 5 detergents: (1) nonylphenol POE-9 (NP-9), (2) polydet (P-40), (3) octylglucoside, (4) (3-[3-cholamindopropyl)-dimethylammonio]1-propane sulfonate (CHAPS), and (5) (3-[3-cholamindopropyl)-dimethyl ammonio]-2-hydroxy-1-propane sulfonate).2H2 O (CHAPSO) were tested. […] Biochem. & Biophys., 191, 47a (1978)].
# [4] = substrate: O=C1O[C@H]([C@@H](O)CO)[C@@H](O)[C@@H]1O; assay: mitochondrial assay for L-galactono-1,4-lactone oxidase activity; format: biochemical, Saccharomyces Cerevisiae; settings: other: intact mitochondrial system, substrate 0.1 mM to 50 mM; 37.0 °C
# Description: Two pounds of Red Star baker's yeast (Saccharomyces Cerevisiae), which is not overproductive in L-Ascorbic acid were disrupted according to the method of Tzagoloff [J. Biol. Chem., 244, 5020 (1969)]. The frozen powder (900 gm) was transferred to 1.51 of a solution consisting of 0.4 M sucrose, 0.05 M Tris(hydroxymethyl) amino methane (Tris-HCl) pH 8.2, with one millimolar ethylene diamine tetracetic acid (EDTA). The pH of the suspension was adjusted to 7.5 with sodium hydroxide and the suspension was subsequently homogenized in a blender for 45 seconds. The homogenate was centrifuged at 2500×g for 15 minutes at 4° C. and the cell debris was discarded. The supernatant was centrifuged at 62000×g in a Shar-les centrifuge. The pellet (mitochondria) was saved and resuspended in 250 ml of a solution containing 0.25 M sucrose and 0.01 M Tris-HCl pH 7.5 and frozen.
# An assay mixture is provided which contains 2mM L-galactono-1,4-lactone and 50 mM Na-Citrate pH 6.8 in a total volume of 3 ml. The mixture is incubated at 37° C. in a shaker bath for up to 30 minutes. The reaction is stopped by adding 0.3 ml of 50% TCA. […]
# The specific activity of this sample was calculated to be 2.5 ×10^-3 micromoles/min/mg protein. […]
molecule,measurement,setting,value
O=C(O)[C@@H](O)[C@H](O)[C@H](O)C(=O)CO [5-Keto-L-Galactonic acid],utilization as substrate for L-ascorbic acid,preferred yeast strains,not utilized
O=C[C@H](O)[C@@H](O)[C@H](O)CO [D-Xylose],Assimilation of carbon compounds,Candida norvegensis,+ latent or
COC(=O)[C@@H](O)[C@H](O)[C@H](O)[C@@H](O)C=O [D-galacturonic acid-methyl ester],Other redox Compounds,[1],17.5 µg/mL
same,Total Ascorbate,[1],473 ug/100 ml
same,L-Ascorbate,[1],3.5 µg/mL
same,Optical Density,[1],2.60
same,Other redox Compounds,[2],1.3 µg/mL
same,Total Ascorbate,[2],"4,383 ug/100 ml"
same,L-Ascorbate,[2],12.0 µg/mL
same,Optical Density,[2],8.50
O=[N+]([O-])[O-].[K+] [KNO3],Assimilation of KNO3,Candida norvegensis,negative
O=C(O)[C@@H](O)[C@H](O)[C@H](O)[C@@H](O)CO [L-galactonic acid],utilization as substrate for L-ascorbic acid,preferred yeast strains,yields of L-ascorbic acid are reduced
"O=C1O[C@H]([C@@H](O)CO)[C@@H](O)[C@@H]1O [L-galactono-1,4-lactone]",Km,[3],1300 µM
same,Other redox Compounds,[1],10.1 µg/mL
same,Total Ascorbate,[1],"10,625 ug/100 ml"
same,L-Ascorbate,[1],92.8 µg/mL
same,Optical Density,[1],2.05
same,Other redox Compounds,[2],1.8 µg/mL
same,Total Ascorbate,[2],"15,905 ug/100 ml"
same,L-Ascorbate,[2],50.0 µg/mL
same,Optical Density,[2],8.50
B1,Km,[4],1600 µM
same,Vmax,[4],0.34 µmol/min
